Measurements: patent US9757464B2, “Pharmaceutical compositions of dextran polymer derivatives” (Bend Research, Inc., priority 2009, dated 2017)

Experiments:
[1] = Syringe dissolution test (in vitro dissolution performance); format: physicochemical; details: pH 7.4 buffer; for Concentration: 50 μg/mL dosed
Description: This solution was adjusted to pH 7.42 by adding sufficient 0.1 N HCl. […] After adding the dispersion and the buffer to the syringe, the syringe was periodically inverted to mix the components in the syringe. The syringe was fitted with a 0.45 μm Supor PES syringe filter (manufacturer, city, state). After 5 minutes, 1 mL of fluid was pushed through the filter into a 2-mL centrifuge tube. A 0.5-mL aliquot of methanol was then added to the centrifuge tube, which was then inverted to mix the contents in the tube, followed by centrifugation at 13,000 rpm for 1 minute. The supernatant was transferred to another centrifuge tube. This procedure was repeated for all timepoints. Samples were frozen in liquid nitrogen and place on a lyophilizer for 3 days to remove all liquids.

[2] = Tg of amorphous active agent by DSC; format: physicochemical

SMILES	Concentration ([1]; 0 min) [µg/mL]	Concentration ([1]; 5 min) [µg/mL]	Concentration ([1]; 15 min) [µg/mL]	Concentration ([1]; 30 min) [µg/mL]	Concentration ([1]; 90 min) [µg/mL]	Concentration ([1]; 180 min) [µg/mL]	Cmax ([1]; syringe dissolution test) [µg/mL]	Tg of amorphous active agent [2] [°C]
CCC(=O)O[C@]1(C(=O)SCF)[C@H](C)C[C@H]2[C@@H]3C[C@H](F)C4=CC(=O)C=C[C@]4(C)[C@@]3(F)[C@@H](O)C[C@@]21C [Control 1]	0	0.25	0.30	0.10	0.24	0.37	0.37	
CCC(=O)O[C@]1(C(=O)SCF)[C@H](C)C[C@H]2[C@@H]3C[C@H](F)C4=CC(=O)C=C[C@]4(C)[C@@]3(F)[C@@H](O)C[C@@]21C [Active Agent 1, S-(fluoromethyl) 6α,9-difluoro-11β,17-dihydroxy-16α-methyl-3-oxoandrosta-1,4-diene-17β-carbothioate, 17-propionate]								84
